Test results published in ChEMBL document CHEMBL5352381, “Design and development of a novel series of oral bivalent BET inhibitors with potent anticancer activities” (Eur J Med Chem, 2022).

Columns and labels:
[1] = Metabolic stability in human liver microsomes assessed as half life; type: ADME, Microsome
[2] = Metabolic stability in dog liver microsomes assessed as half life; type: ADME, Canis lupus familiaris, Microsome
[3] = Metabolic stability in mouse liver microsomes assessed as half life; type: ADME, Microsome
[4] = Metabolic stability in human liver microsomes assessed as clearance; type: ADME, Microsome; details: read-out: CLH
[5] = Metabolic stability in dog liver microsomes assessed as clearance; type: ADME, Canis lupus familiaris, Microsome; details: read-out: CLH
[6] = Metabolic stability in mouse liver microsomes assessed as clearance; type: ADME, Microsome; details: read-out: CLH
[7] = Half life in CD-1 mouse at 10 mg/kg, po; type: ADME, organism-based; details: in vivo
[8] = Tmax in CD-1 mouse at 10 mg/kg, po; type: ADME, organism-based; details: in vivo
[9] = Cmax in CD-1 mouse at 10 mg/kg, po; type: ADME, organism-based; design: dose 10 mg/kg, route po; details: in vivo
[10] = AUClast in CD-1 mouse at 10 mg/kg, po; type: ADME, organism-based; design: dose 10 mg/kg, route po; details: in vivo
[11] = Observed AUC infinity in CD-1 mouse at 10 mg/kg, po; type: ADME, organism-based; design: dose 10 mg/kg, route po; details: in vivo
[12] = Observed MRT infinity in CD-1 mouse at 10 mg/kg, po; type: ADME, organism-based; details: in vivo
Ty-82 [13] = assay: Antiproliferative activity against human Ty-82 cells incubated for 72 hrs by sulforhodamine B based cell counting kit-8 assay; type: functional; details: TY82, 72 h
MM1.S [14] = assay: Antiproliferative activity against human MM1.S cells incubated for 72 hrs by sulforhodamine B based cell counting kit-8 assay; type: functional
Ty-82 [15] = assay: Antitumor activity against human Ty-82 cells xenografted in BALB/c nude mouse assessed tumor growth inhibition treated at 0.5 mg/kg, po qd for 21 days relative to control; type: functional; details: TY82, 504 h, time 21 day, read-out: TGI
[16] = Toxicity in BALB/c mouse xenografted with human Ty-82 assessed as body weight loss treated at 0.25 to 0.5 mg/kg, po qd for 21 days; type: organism-based; details: in vivo, 504 h, dose 0.25-0.5 mg/kg, time 21 day
[17] = Toxicity in BALB/c mouse xenografted with human Ty-82 assessed as death treated at 0.25 to 0.5 mg/kg, po qd for 21 days; type: organism-based; details: in vivo, 504 h, dose 0.25-0.5 mg/kg, time 21 day
MM1.S [18] = assay: Antitumor activity against human MM1.S cells xenografted in BALB/c nude mouse assessed growth inhibition treated at 3 mg/kg, po qd for 10 days followed by dose adjustment to 1.5 mg/kg from day 11 to 21 due to body weight loss relative to control; type: functional; details: dose 1.5-3 mg/kg, time 21 day, at 1.5 to 3 mg/kg
[19] = Toxicity in BALB/c mouse xenografted with human MM1.S assessed body weight loss treated at 3 mg/kg, po qd for 10 days; type: organism-based; details: in vivo, 240 h, time 10 day
[20] = target: Bromodomain-containing protein 4 (Homo sapiens, UniProt O60885); assay: Inhibition of full length BRD4 (unknown origin) transfected in HEK293 cells incubated for 20 hrs measured by NanoBRET BRD4/Histone H3.3 interaction assay kit; type: cell-based
MV4-11 = assay: Antiproliferative activity against human MV4-11 cells; type: functional, cell-based

SMILES | half-life [7] [h] | Tmax [8] [h] | Cmax [9] [µg/mL] | AUC(0-t) [10] [µg·h/mL] | AUC(0-inf) [11] [µg·h/mL] | MRT [12] [h] | IC50 (Ty-82 [13]) [nM] | IC50 (MM1.S [14]) [nM] | also measured
Cc1ccc(-n2nc(C(=O)N3C[C@H](C)N(C(=O)c4nc(-c5ccc6c(c5)N(C)[C@H](C)C(=O)N6C)n(-c5ccc(C)cc5)n4)C[C@H]3C)nc2-c2ccc3c(c2)N(C)[C@H](C)C(=O)N3C)cc1 |  |  |  |  |  |  |  |  | half-life [1]: 3.62 h; half-life [2]: 3.02 h; half-life [3]: 1.84 h; microsomal CLint [4]: 6.4 µL/min/mg; microsomal CLint [5]: 7.6 µL/min/mg; microsomal CLint [6]: 12.6 µL/min/mg
Cc1ccc(-n2nc(C(=O)NCCCNC(=O)c3nc(-c4ccc5c(c4)N(C4CCCC4)[C@H](C)C(=O)N5C)n(-c4ccc(C)cc4)n3)nc2-c2ccc3c(c2)N(C2CCCC2)[C@H](C)C(=O)N3C)cc1 | 0.74 | 0.58 | 0.0581 | 0.0715 | 0.0758 | 1.75 |  |  | 
C[C@@H]1C(=O)N(C)c2ccc(-c3nc(C(=O)N4CCN(C(=O)c5nc(-c6ccc7c(c6)N(C6CCCC6)[C@H](C)C(=O)N7C)n(-c6ccc7ccccc7c6)n5)CC4)nn3-c3ccc4ccccc4c3)cc2N1C1CCCC1 |  |  |  |  |  |  | 0.6 | 0.51 | 
Cc1ccc(-n2nc(C(=O)N3C[C@H](C)N(C(=O)c4nc(-c5ccc6c(c5)N(C5CCC5)[C@H](C)C(=O)N6C)n(-c5ccc(C)cc5)n4)C[C@H]3C)nc2-c2ccc3c(c2)N(C2CCC2)[C@H](C)C(=O)N3C)cc1 |  |  |  |  |  |  | 0.05 | 0.04 | half-life [1]: 48.7 h; half-life [2]: 34.7 h; half-life [3]: 9.48 h; microsomal CLint [4]: 0.5 µL/min/mg; microsomal CLint [5]: 0.7 µL/min/mg; microsomal CLint [6]: 2.4 µL/min/mg; inhibition in vivo at 0.5 mg/kg (Ty-82 [15]): 61%; Activity [16]: Toxic; Activity [17]: Non-Toxic
Cc1ccc(-n2nc(C(=O)N3CCN(C(=O)c4nc(-c5ccc6c(c5)N(C5CCCC5)[C@H](C)C(=O)N6C)n(-c5ccc(C)cc5)n4)[C@H](C)C3)nc2-c2ccc3c(c2)N(C2CCCC2)[C@H](C)C(=O)N3C)cc1 | 2.82 | 2 | 0.823 | 4.15 | 4.17 | 4.85 |  |  | growth inhibition (GI) (MM1.S [18]): 78.6%; Activity [19]: Toxic
Cc1ccc(-n2nc(C(=O)NCCNC(=O)c3nc(-c4ccc5c(c4)N(C4CCCC4)[C@H](C)C(=O)N5C)n(-c4ccc(C)cc4)n3)nc2-c2ccc3c(c2)N(C2CCCC2)[C@H](C)C(=O)N3C)cc1 |  | 2.76 | 0.0337 |  |  |  |  |  | 
Cc1ccc(-n2nc(C(=O)N3CCNCC3)nc2-c2ccc3c(c2)N(C2CCCC2)[C@@H](C)C(=O)N3C)cc1 |  |  |  |  |  |  | > 20000 | > 20000 | IC50 [20]: 1730 nM
Cc1ccc(-n2nc(C(=O)N[C@@H]3CCCC[C@H]3NC(=O)c3nc(-c4ccc5c(c4)N(C4CCCC4)[C@H](C)C(=O)N5C)n(-c4ccc(C)cc4)n3)nc2-c2ccc3c(c2)N(C2CCCC2)[C@H](C)C(=O)N3C)cc1 | 0.1 | 2.67 | 0.0337 | 0.205 | 0.278 | 11.2 |  |  | 
Cc1ccc(-n2nc(C(=O)N3C[C@H](C)N(C(=O)c4nc(-c5ccc6c(c5)N(Cc5ccccc5)[C@H](C)C(=O)N6C)n(-c5ccc(C)cc5)n4)C[C@H]3C)nc2-c2ccc3c(c2)N(Cc2ccccc2)[C@H](C)C(=O)N3C)cc1 |  |  |  |  |  |  | 1.12 | 1.77 | 
Cc1sc2c(c1C)C(c1ccc(Cl)cc1)=NC(CC(=O)OC(C)(C)C)c1nnc(C)n1-2 (stereo not drawn) |  |  |  |  |  |  |  |  | IC50 (MV4-11): 72.2 nM
Cc1ccc(-n2nc(C(=O)N(C)CCN(C)C(=O)c3nc(-c4ccc5c(c4)N(C4CCCC4)[C@H](C)C(=O)N5C)n(-c4ccc(C)cc4)n3)nc2-c2ccc3c(c2)N(C2CCCC2)[C@H](C)C(=O)N3C)cc1 | 0.49 | 0.25 | 0.264 | 0.124 | 0.129 | 1.07 |  |  | 
